Measured values from patent US20100184758A1, “BETA CARBOLINE DERIVATIVES AS ANTIDIABETIC COMPOUNDS” (priority 2007, published 2010).

Assays:
Format in all cases: in vivo, mouse
C57BL/6N mice [1] = assay: Glucose tolerance test in mice; conditions: wild type mice containing intact, functional SSTR3
Procedure: (§1) Male C57BL/6N mice (7-12 weeks of age) are housed 10 per cage and given access to normal diet rodent chow and water ad libitum. Mice are randomly assigned to treatment groups and fasted 4 to 6 h. Baseline blood glucose concentrations are determined by glucometer from tail nick blood. Animals are then treated orally with vehicle (0.25% methylcellulose) or test compound. Blood glucose concentration is measured at a set time point after treatment (t=0 min) and mice are then challenged with dextrose intraperitoneally- (2-3 g/kg) or orally (3-5 g/kg). One group of vehicle-treated mice is challenged with saline as a negative control. Blood glucose levels are determined from tail bleeds taken at 20, 40, 60 minutes after dextrose challenge. […] Percent inhibition values for each treatment are generated from the AUC data normalized to the saline-challenged controls. A similar assay may be performed in rats.

SSTR3 knock out mice = assay: Glucose tolerance test in SSTR3 gene knockout mice; conditions: oral dose in the range of 1 to 30 mg/kg po
Procedure: as §1
In order to assess the selectivity of blockade of SSTR3, compounds were evaluated in the oral glucose tolerance test (oGTT) described above in mice lacking the gene for a functional SSTR3.

C57BL/6N mice [2] = assay: Oral glucose tolerance test in mice, SSTR3 antagonist combined with DPP-4 inhibitor; conditions: suboptimal doses 0.001 to 0.1 mg/kg po with low doses of a DPP-4 inhibitor such as sitagliptin and des-fluoro-sitagliptin
Procedure: Compounds of the present invention were combined with dipeptidyl peptidase-IV (DPP-4) inhibitors in oral glucose tolerance test (oGTT) described above. Male C57BL/6N mice (7-12 weeks of age) were housed 10 per cage and given access to normal rodent chow and water ad libitum. Mice were randomly assigned to treatment groups and fasted 4 to 6 h. Baseline blood glucose concentrations were determined by glucometer from tail nick blood. […] Blood glucose concentration was measured at a set time point after treatment (t=0 min) and mice were then challenged with dextrose intraperitoneally (2-3 g/kg) or orally (3-5 g/kg). One group of vehicle-treated mice was challenged with saline as a negative control. Blood glucose levels were determined from tail bleeds taken at 20, 40, 60 min after dextrose challenge. […] Percent inhibition values for each treatment were generated from the AUC data normalized to the saline-challenged controls.

CCOCC1(c2cnn(C)c2)N[C@@H](c2nc(-c3ccc(F)cc3)c[nH]2)Cc2c1[nH]c1ccccc21 (stereo partly drawn) [Example 20, (3R)-[4-(4-Fluorophenyl)-1H-imidazol-2-yl]-1-(ethoxymethyl)-1-(1-methyl-1H-pyrazol-4-yl)-2,3,4,9-tetrahydro-1H-β-carboline]
inhibition of glucose excursion in oGTT (C57BL/6N mice [1]): inhibit glucose excursion | inhibition of glucose excursion in oGTT (SSTR3 knock out mice): failed to significantly inhibit glucose excursion | activity in oGTT in combination with a DPP-4 inhibitor versus alone (C57BL/6N mice [2]): more active in combination with low doses of a DPP-4 inhibitor

Cc1nc(C2N[C@@H](c3nc(-c4ccc(F)cc4)c[nH]3)Cc3c2[nH]c2ccccc32)no1 (stereo partly drawn) [Example 17, (3R)-3-[4-(4-Fluorophenyl)-1H-imidazol-2-yl]-1-(5-methyl-1,2,4-oxadiazol-3-yl)-2,3,4,9-tetrahydro-1H-β-carboline]
inhibition of glucose excursion in oGTT (C57BL/6N mice [1]): inhibit glucose excursion | inhibition of glucose excursion in oGTT (SSTR3 knock out mice): failed to significantly inhibit glucose excursion

Cc1nc(C2(c3cnn(C)c3)N[C@@H](c3nc(-c4ccc(F)cc4)c[nH]3)Cc3c2[nH]c2ccccc32)no1 (stereo partly drawn) [Example 21, (3R)-[4-(4-Fluorophenyl)-1H-imidazol-2-yl]-1-(5-methyl-1,2,4-oxadiazol-3-yl)-1-(1-methyl-1H-pyrazol-4-yl)-2,3,4,9-tetrahydro-1H-β-carboline]
inhibition of glucose excursion in oGTT (C57BL/6N mice [1]): inhibit glucose excursion
